From patent publication US20160367511A1, “EFFICACY OF DIETARY DHA-PHOSPHOLIPID FOR BRAIN DHA AND DPA ACCRETION IN NEONATES” (N.V. NUTRICIA, priority 2013, published 2016)

Settings: both, Yorkshire x Landrace cross sows bred with Hampshire boars, pig, in vivo, 6 days
Experimental: The TAG tracer (TAG-^13C-DHA) had ^13C-DHA in the sn-2 position with unlabeled 16:0 in the sn-1 and sn-3 positions. The tracer representative for PL was phosphatidylcholine (PC) with ^13C-DHA in the sn-2 position and unlabeled 16:0 in the sn-1 position (PC-^13C-DHA).
Sows (Yorkshire and Landrace cross) were bred with Hampshire boars. After birth, piglets were left to nurse with the sow for at least 48 hours. Twenty piglets, 2 to 4 days of age, were chosen for the study based on the following criteria: weight (about 2.0 kg), gender (10 males and 10 females), health (active and apparently normal, and not the smallest animal in the litter) and sow. Piglets were given a unique number/color combination identifier and then were transported to Large Animal Research and Teaching Unit (LARTU), Cornell University.
At the study site, piglets were housed in individual stainless steel cages and were placed on a single fully balanced commercially available young farm animal milk replacer formula immediately upon arrival.
On day 16 of life, 16 robust piglets were assigned to two dosing groups balanced with respect to gender, weight, and age but otherwise distributed randomly. Group PC were orally dosed with PC-^13C-DHA; Group TG were dosed with TG-^13C-DHA.
Doses were prepared by dissolving CHC13 solutions of PC-^13C-DHA or TAG-^13C-DHA in about 1 mL of refined olive oil and driving off the CHCl3 by gentle heating under flowing dry N2 over 4 hours. The resulting olive oils were carefully placed on the surface of a few mL of reconstituted piglet formula and sonicated until homogeneous. The resulting labeled formula was split into 1 to 2 mL aliquots gravimetrically and administered orally to piglets, followed by several washes of the vials containing the labeled formulas, at the beginning of a feed. Care was taken to insure all of the labeled formula and the washes, consisting of a total of up to 10 mL, were swallowed by the piglets. Piglets were then provided with their normal meal of 500 mL milk replacer which they routinely consume completely. Doses to piglets corresponded to about 20 mg ^13C-DHA delivered in PC and 86 mg of ^13C-DHA delivered in TAG.
Six days after the dose, and on a single day after 20 days of formula, all piglets were euthanized by exsanguination under anesthesia. Blood for fatty acid analysis was collected in tubes with EDTA and spun to prepare red blood cells. […] A piece was immediately used for preparation of synaptosomes, and the remaining grey matter was flash frozen for fatty acid analysis. Retina, heart, liver, biceps femoris muscle and kidney were also harvested, and all tissues were flash frozen and stored at −80° C. until prepared for analysis. […]

CC/C=C\C/C=C\C/C=C\C/C=C\C/C=C\C/C=C\CCC(=O)O [^13C-DHA, docosahexaenoic acid]
13C-DHA relative to 13C-DPA in grey matter: about 8 fold
13C-DHA relative to 13C-DPA in liver: 40 fold
13C-DHA relative to DPAn-3 in retina: 6.3 fold
liver 13C-DHA relative to grey matter 13C-DHA: about 20 fold
